Measured values as given in US20220177947A1, “Compounds to Identify Beta-Lactamases, and Methods of Use Thereof” (priority 2019, published 2022).
Where two headings read alike, the source gives them in different places.

Columns and labels:
[1] = test system: Enterobacteriaceae isolates; type: cell-based; settings: for resistance in the isolates (in words): all Enterobacteriaceae isolates, excluding intrinsic resistance
Method: Urine culture, organism identification, AST, and ESBL confirmatory testing. Standard microbiological procedures were performed by the clinical laboratory as part of routine care for all urine samples used in this study, per the clinical laboratory's standard operating procedures. First, 1 μL or 10 μL of urine sample was plated on standard agar plates (blood agar and eosin methylene blue agar biplate), then visually inspected the next day for significant growth indicative of a UTI (≥10^4 CFU/mL cutoff applied). The MiscroScan WalkAway system (Beckman Coulter) was utilized for bacterial identification and AST of GNB and select GPB causing UTI. […] AST interpretations were based on CLSI's 2017 guidelines.

[2] = biological target: T1, SHV-1 (Klebsiella pneumoniae, UniProt P0AD64); settings: cited from earlier work
T1 sequence (P0AD64 22-286): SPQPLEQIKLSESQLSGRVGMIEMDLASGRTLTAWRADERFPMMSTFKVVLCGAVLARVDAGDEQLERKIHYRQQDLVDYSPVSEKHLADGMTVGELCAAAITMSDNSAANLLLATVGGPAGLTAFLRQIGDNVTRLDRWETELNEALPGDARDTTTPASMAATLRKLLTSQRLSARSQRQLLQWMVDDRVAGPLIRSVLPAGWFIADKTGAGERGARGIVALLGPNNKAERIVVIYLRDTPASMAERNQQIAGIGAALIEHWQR

[3] = biological target: T1, SHV-1; settings: cited from earlier work; remark: listed apart in the source
[4] = test system: E. coli clinical isolates; test: DETECT with β-lactamase inhibitors (clavulanic acid); type: cell-based; settings: original score/inhibitor score, 30 min
Method: (§1) A solution of sodium clavulanate was prepared to 1 mg/400 μL in “buffer 1”, and 4 μL of this solution was added to both the sample and control well for each isolate tested, two min prior to addition of β-lactamase probe or acetonitrile to the sample and control well, respectively. […]

[5] = test system: K. pneumoniae clinical isolates; test: as above; type: cell-based; settings: original score/inhibitor score, 30 min
Method: as §1

[6] = biological target: T2, TEM-1 (Escherichia coli, UniProt P62593); settings: cited from earlier work
T2 sequence (P62593 24-286 limits assumed): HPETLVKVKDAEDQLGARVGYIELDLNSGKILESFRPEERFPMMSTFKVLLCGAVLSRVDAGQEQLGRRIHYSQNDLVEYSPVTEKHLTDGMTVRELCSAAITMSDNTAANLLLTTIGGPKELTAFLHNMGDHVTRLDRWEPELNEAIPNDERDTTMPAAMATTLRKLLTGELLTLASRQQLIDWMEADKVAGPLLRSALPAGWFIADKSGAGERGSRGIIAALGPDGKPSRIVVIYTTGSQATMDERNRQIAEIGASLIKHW

[7] = biological target: B. cereus I (Bacillus cereus, UniProt P00809); settings: cited from earlier work
Sequence of B. cereus I (P00809 28-306): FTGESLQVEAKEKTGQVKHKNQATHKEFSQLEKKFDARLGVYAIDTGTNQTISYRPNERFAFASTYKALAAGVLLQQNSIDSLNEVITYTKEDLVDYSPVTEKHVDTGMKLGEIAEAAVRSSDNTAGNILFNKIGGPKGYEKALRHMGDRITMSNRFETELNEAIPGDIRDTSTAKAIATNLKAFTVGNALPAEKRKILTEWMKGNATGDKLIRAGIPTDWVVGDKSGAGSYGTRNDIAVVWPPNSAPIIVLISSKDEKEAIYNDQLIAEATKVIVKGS

[8] = biological target: T2, TEM-1; settings: cited from earlier work; remark: listed apart in the source
[9] = biological target: S. aureus PC1 (Staphylococcus aureus, UniProt P00807); settings: cited from earlier work
Sequence of S. aureus PC1 (P00807 25-281): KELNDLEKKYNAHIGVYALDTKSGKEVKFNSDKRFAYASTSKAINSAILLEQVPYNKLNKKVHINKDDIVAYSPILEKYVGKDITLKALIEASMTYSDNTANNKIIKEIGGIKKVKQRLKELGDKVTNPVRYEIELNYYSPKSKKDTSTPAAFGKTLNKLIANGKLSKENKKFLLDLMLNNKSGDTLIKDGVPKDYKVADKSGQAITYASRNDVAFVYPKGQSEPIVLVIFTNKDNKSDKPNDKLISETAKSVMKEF

NCC[C@H](O)C(=O)N[C@@H]1C[C@H](N)[C@@H](O[C@H]2O[C@H](CN)[C@@H](O)[C@H](O)[C@H]2O)[C@H](O)[C@H]1O[C@H]1O[C@H](CO)[C@@H](O)[C@H](N)[C@H]1O [amikacin]
resistance identified, number of isolates ([1]; CTX-M-producing bacteria): one

CO[C@@]1(NC(=O)Cc2cccs2)C(=O)N2C(C(=O)O)=C(COC(N)=O)CS[C@@H]21 [cefoxitin]
resistance in the isolates (in words) [1]: rare

O=C(O)[C@H]1/C(=C/CO)O[C@@H]2CC(=O)N21 [clavulanic acid]
IC50 fold lower than that for sulbactam [2]: 580 fold | turnover number (tn), inhibitor molecules to inactivate one β-lactamase enzyme [3]: 60 | Times-change in DETECT score, with clavulanic acid ([4]; isolate CDC-081: CMY-2, TEM-1B): 1.6 | Times-change in DETECT score, with clavulanic acid ([4]; isolate CDC-085: CMY-2): 1.3 | Times-change in DETECT score, with clavulanic acid ([4]; isolate CDC-086: CTX-M-14, TEM-1B): 10.7 | Times-change in DETECT score, with clavulanic acid ([4]; isolate CDC-089: CMY-2): 1.6 | Times-change in DETECT score, with clavulanic acid ([4]; isolate D14: CTX-M-15): 5.4 | Times-change in DETECT score, with clavulanic acid ([4]; isolate D129: CTX-M-2, TEM, SHV): 14.2 | Times-change in DETECT score, with clavulanic acid ([4]; isolate D270: CTX-M-17): 12.9 | Times-change in DETECT score, with clavulanic acid ([4]; isolate D304: CTX-M-55/57): 9.9 | Times-change in DETECT score, with clavulanic acid ([4]; isolate D333: CTX-M-14/17/18): 10.3 | Times-change in DETECT score, with clavulanic acid ([4]; isolate D362: CTX-M-15): 4.9 | Times-change in DETECT score, with clavulanic acid ([4]; isolate D497: CTX-M-15): 3.2 | Times-change in DETECT score, with clavulanic acid ([4]; isolate D500: CTX-M-27, CMY-2/130): 1.7 | Times-change in DETECT score, with clavulanic acid ([4]; isolate SF141: CMY-2): 1.5 | Times-change in DETECT score, with clavulanic acid ([4]; isolate SF148: CTX-M-14): 16.8 | Times-change in DETECT score, with clavulanic acid ([4]; isolate SF207: CMY-2): 1.2 | Times-change in DETECT score, with clavulanic acid ([4]; isolate SF325: CTX-M-14/17/18, OXA): 5.7 | Times-change in DETECT score, with clavulanic acid ([4]; isolate SF410: CTX-M-15): 4.8 | Times-change in DETECT score, with clavulanic acid ([4]; isolate SF468: CTX-M-14, TEM-1): 15.5 | Times-change in DETECT score, with clavulanic acid ([4]; isolate SF473: CTX-M-14/17/18): 13.0 | Times-change in DETECT score, with clavulanic acid ([4]; isolate SF487: CTX-M-14): 9.9 | Times-change in DETECT score, with clavulanic acid ([4]; isolate SF674: CTX-M-15): 5.8 | Times-change in DETECT score, with clavulanic acid ([5]; isolate B7: KPC-2, CTX-M-15, TEM-1B, SHV-11): 2.3 | Times-change in DETECT score, with clavulanic acid ([5]; isolate B14: KPC-2, CTX-M-9, TEM-1A, SHV-11): 2.4 | Times-change in DETECT score, with clavulanic acid ([5]; isolate B23: KPC-2, CTX-M-15, TEM-1B, SHV-11, OXA-1): 4.4 | Times-change in DETECT score, with clavulanic acid ([5]; isolate FB13: CTX-M-15, CTX-M-8, TEM-1A, SHV-25/121, OXA-1): 15.3 | Times-change in DETECT score, with clavulanic acid ([5]; isolate FB90: CTX-M-15, CTX-M-8, TEM-1A, SHV-25/121, OXA-1): 14.2 | Times-change in DETECT score, with clavulanic acid ([5]; isolate HAF66: CTX-M-8, TEM-1, SHV-85): 10.5 | Times-change in DETECT score, with clavulanic acid ([5]; isolate HAF102: CTX-M-8, TEM-1, SHV-76): 8.2 | Times-change in DETECT score, with clavulanic acid ([5]; isolate HCD309: CTX-M-8, TEM-1, SHV-1): 5.9 | Times-change in DETECT score, with clavulanic acid ([5]; isolate HCD405: CTX-M-15, SHV-25/121, OXA-1): 17.6 | Times-change in DETECT score, with clavulanic acid ([5]; isolate HON257: CTX-M-2, TEM-15, SHV-25/121): 23.0 | Times-change in DETECT score, with clavulanic acid ([5]; isolate SF681: CTX-M-15, TEM-1B, SHV-11, OXA-1): 3.8 | turnover number (tn), inhibitor molecules to inactivate one β-lactamase enzyme [6]: 160 | turnover number (tn), inhibitor molecules to inactivate one β-lactamase enzyme [7]: more than 16,000 | IC50 fold lower than that for sulbactam [8]: 60 fold | turnover number (tn), inhibitor molecules to inactivate one β-lactamase enzyme [9]: one

C[C@H]1COc2c(N3CCN(C)CC3)c(F)cc3c(=O)c(C(=O)O)cn1c23 [levofloxacin]
resistance identified, number of isolates ([1]; CTX-M-producing bacteria): 8 | resistance identified, percent of isolates ([1]; CTX-M-producing bacteria): 73% | resistance identified, number of isolates ([1]; bacteria lacking CTX-Ms): 13 | resistance identified, percent of isolates ([1]; bacteria lacking CTX-Ms): 14%

O=C1CN(/N=C/c2ccc([N+](=O)[O-])o2)C(=O)N1 [nitrofurantoin]
resistance identified, number of isolates ([1]; CTX-M-producing bacteria): 1 | resistance identified, percent of isolates ([1]; CTX-M-producing bacteria): 10% | resistance identified, number of isolates ([1]; bacteria lacking CTX-Ms): 2 | resistance identified, percent of isolates ([1]; bacteria lacking CTX-Ms): 2%

CC1(C)[C@H](C(=O)O)N2C(=O)C[C@H]2S1(=O)=O [sulbactam]
turnover number (tn), inhibitor molecules to inactivate one β-lactamase enzyme [3]: 13,000 | turnover number (tn), inhibitor molecules to inactivate one β-lactamase enzyme [6]: 10,000

CN(C)c1cc(NC(=O)CNC(C)(C)C)c(O)c2c1C[C@H]1C[C@H]3[C@H](N(C)C)C(O)=C(C(N)=O)C(=O)[C@@]3(O)C(O)=C1C2=O [tigecycline]
resistance in the isolates (in words) [1]: no tigecycline-resistant isolates were identified

NC[C@H]1O[C@H](O[C@H]2[C@H](O)[C@@H](O[C@H]3O[C@H](CO)[C@@H](O)[C@H](N)[C@H]3O)[C@H](N)C[C@@H]2N)[C@H](N)C[C@@H]1O [tobramycin]
resistance identified, number of isolates ([1]; CTX-M-producing bacteria): 5 | resistance identified, percent of isolates ([1]; CTX-M-producing bacteria): 45% | resistance identified, number of isolates ([1]; bacteria lacking CTX-Ms): 2 | resistance identified, percent of isolates ([1]; bacteria lacking CTX-Ms): 2%

gentamicin
resistance identified, number of isolates ([1]; CTX-M-producing bacteria): 5 | resistance identified, percent of isolates ([1]; CTX-M-producing bacteria): 45% | resistance identified, number of isolates ([1]; bacteria lacking CTX-Ms): 7 | resistance identified, percent of isolates ([1]; bacteria lacking CTX-Ms): 7%

piperacillin/tazobactam
resistance in the isolates (in words) [1]: not detected

trimethoprim/sulfamethoxazole
resistance identified, number of isolates ([1]; CTX-M-producing bacteria): 8 | resistance identified, percent of isolates ([1]; CTX-M-producing bacteria): 73% | resistance identified, number of isolates ([1]; bacteria lacking CTX-Ms): 21 | resistance identified, percent of isolates ([1]; bacteria lacking CTX-Ms): 22%
